# ChEMBL document CHEMBL3352292, “i-Motif DNA: structure, stability and targeting with ligands” (Bioorg Med Chem, 2014)
# Columns and labels:
# [1] = Binding affinity to bcl-2 i-Motif DNA (unknown origin) by fluorescence based assay
# [2] = Binding affinity to human telomeric duplex DNA
# Homo sapiens [3] = species: Homo sapiens; assay: Binding to human telomeric i-Motif DNA by fluorescence titration method
# Homo sapiens [4] = species: Homo sapiens; assay: Increase in thermal stability of human telomeric i-Motif DNA assessed as change in melting temperature at pH 5.5
# [5] = Binding affinity to human telomeric G-quadruplex DNA
# [6] = Reduction in bcl-2 expression in human GRANTA-519 cells xenografted in mouse; type: functional; details: dose or concentration not given here
# [7] = Antitumor activity against human GRANTA-519 cells xenografted in mouse assessed as inhibition of tumor growth co-administered with etoposide; type: functional
# Homo sapiens [8] = species: Homo sapiens; assay: Binding affinity to human telomeric G-quadruplex DNA assessed as change in melting temperature by FRET assay
# Homo sapiens [9] = species: Homo sapiens; assay: Binding affinity to human telomeric i-Motif DNA assessed as change in melting temperature at pH 6.8 by FRET assay
# [10] = Binding affinity to d(C5T3)3C5 i-Motif DNA (unknown origin) by UV titration method
Kd [2] [µM],Kd (Homo sapiens [3]) [µM],ΔTm (Homo sapiens [4]) [°C],Kd [5] [µM],Structure (SMILES),also measured
–,–,–,–,CC(C)CC[C@H](C)[C@@H]1CC[C@H]2[C@@H]3CC[C@H]4C[C@@H](NC(=O)C[N+]5(C)CCCCC5)CC[C@]4(C)[C@H]3CC[C@@]21C,Kd [1]: 0.49 µM
6.7,4,7,1.6,O=C(Nc1ccc(OCCN2CCCCC2)cc1)c1ccc2ccc3ccc(C(=O)Nc4ccc(OCCN5CCCCC5)cc4)nc3c2n1,–
–,–,–,–,COc1ccc2c(c1)CN([C@@H](C)[C@H]1CC[C@H]3[C@@H]4CC[C@H]5C[C@@H](O)CC[C@]5(C)[C@H]4CC[C@]13C)CO2,inhibition [6]: 20%; TGI [7]: 65%; Kd [1]: 1.01 µM
–,–,–,–,c1cc2nc3ccc4cc3cc2cc1CNCCNCCNCc1ccc2nc3ccc(cc3cc2c1)CNCCNCCNC4,ΔTm (Homo sapiens [8]): 15 °C; ΔTm (Homo sapiens [9]): 33 °C
–,–,–,–,CN(C)c1ccc(C(=C2C=CC(=[N+](C)C)C=C2)c2ccc(N(C)C)cc2)cc1 [GENTIAN VIOLET],Kd [10]: 0.83 µM
6.7,4,7,1.6,O=C(Nc1ccc(OCCN2CCCC2)cc1)c1ccc2ccc3ccc(C(=O)Nc4ccc(OCCN5CCCC5)cc4)nc3c2n1,–
6.7,4,7,1.6,CN(C)CCOc1ccc(NC(=O)c2ccc3ccc4ccc(C(=O)Nc5ccc(OCCN(C)C)cc5)nc4c3n2)cc1,–
